Experiments:
[1] = tested on: Demodex; assay: Ex vivo treatment of Demodex on epilated lashes, kill time; settings: lashes immersed in 1-2 drops, time to cessation of all movement for minimum 60 seconds, examined every four hours
Description: Epilated lashes from an individual with confirmed Demodex infection were mounted onto six slides and covered with a coverslip. The lashes were then immersed in 1-2 drops of treatment solution (50 mg/mL 5-FU, 5 mg/mL 5-FU, or balanced salt solution as a control (2 slides each)). The slides were examined under a microscope (at magnifications ranging from 20-40×) every four hours. The kill time was defined as the elapsed time between the addition of test solution and all cessation of movement of the body, legs, mouth and pedipalps for a minimum of 60 seconds. The kill time for Demodex-infested lashes immersed in 5 mg/mL of 5-FU, 50 mg/mL of 5-FU, and control were 32 hours, 44 hours, and 72 hours, respectively.

[2] = tested on: Demodex; assay: Clinical treatment of Demodex blepharitis with topical 5-FU 1%; assay type: in vivo, human
Description: The diagnosis of ocular demodicosis was based on clinical examination and confirmed by lash sampling and identification of microscopic mites. Lashes with cylindrical dandruff (CD), (scales that form clear cuffs collaring the lash root) were specifically selected for epilation. External slit lamp photos of both eyes of each individual were taken prior to and after initiation of 5-FU treatment. […] Patients were treated with 5-FU in a cyclical fashion (one week of topical 5-FU 1% application 4 times per day in the affected eye(s) followed by a 3-week holiday comprised one cycle).

[3] = tested on: Demodex; assay: Clinical treatment of Demodex infestation with topical mitomycin C; assay type: in vivo, human; settings: patient with conjunctival melanoma and heavy Demodex infestation, after 2 cycles

| SMILES | kill time ([1]; 5 mg/mL 5-FU) [h] | kill time ([1]; 50 mg/mL 5-FU) [h] | CDs (cylindrical dandruff) and inflammation ([2]; one individual with bilateral 5-FU treatment, both eyes compared to pre-treatment) | collarettes and lid inflammation by clinical examination ([2]; topical 5-FU 1% 4 times per day one week, 3-week holiday per cycle, at least 2 cycles, treated eyes compared to untreated eye) | lash collarettes [3] |
| --- | --- | --- | --- | --- | --- |
| O=c1[nH]cc(F)c(=O)[nH]1 [5-FU, 5-fluorouracil] | 32 | 44 | reduction in CDs and inflammation | reduction in collarettes and lid inflammation |  |
| CO[C@@]12[C@H](COC(N)=O)C3=C(C(=O)C(C)=C(N)C3=O)N1C[C@@H]1N[C@@H]12 [mitomycin C] |  |  |  |  | dramatic reduction in lash collarettes |
